Data as given in US4073938A, “19,20-Bis-nor-prostenoic acids as hypolipemic compounds” (Istituto Biochimico Italiano di Loredana Lorenzini S.a.s., priority 1974, dated 1978).
Counter-ions that a name gives are not always drawn.

Key:
[1] = Triglyceridemia and cholesterolemia in rats given alcohol 10%; format: in vivo, Male Sprague-Dawley rats; settings: 1 week endoperitoneal once daily (CPIB, BBA 200 mg/kg; C83 50 mg/kg); for Cholesterolemia: controls 91.5 ± 6.6, alcohol 81.0 ± 4.6; for Triglyceridemia: controls 97.8 ± 5.1, alcohol 169.0 ± 25.0
Procedure: | Treatment for 1 week CPIB - BBA - 200 mg/kg endoperitoneal; C83 | 50mg/kg endoperitoneal; only one daily administration. | Male Sprague-Dawley rats 150 gr. | Groups of 6 rats.

[2] = system: ulcer induced by aspirin; assay: Anti-ulcerous activity, ulcer from aspirin (9-keto sodium salt); format: in vivo, Female rats of the Wistar stock
Procedure: The anti-ulcerous activity of the compound in question is tested on an ulcer induced by aspirin and on an ulcer induced by phenyl butazone. In both models the mucous lesions are localized in the glandular section of the stomach.
Female rats of the Wistar stock weighing 150-175 g were selected. 24 hours before the start of the test the animals were made to fast, allowing water at will.
Each test group consists of 12 animals. The aspirin is administered orally in the form of a suspension (45 mg in ml of 0.5% carboxymethylcellulose for each animal). The application of the sodium salt in question takes place either intravenously (2 × 5 mg or 1 × 50 mg of substance/kg in 2 ml of 0.9% sodium chloride solution) or orally (2 × 10 mg or 2 × 100 mg of substance/kg in 2 ml of 0.5% carboxymethylcellulose suspension). The first dose is administered 10 minutes before application of the aspirin, and the second dose two and a half hours afterwards. […] The animals are killed 5 hours after application of the aspirin, the stomachs are prepared, and the number and size of the lesions is evaluated with a stereomicroscope.

[3] = system: ulcer induced by phenylbutazone; assay: Anti-ulcerous activity, ulcer from phenylbutazone (9-keto sodium salt); format: in vivo, Female rats of the Wistar stock
Procedure: The anti-ulcerous activity of the compound in question is tested on an ulcer induced by aspirin and on an ulcer induced by phenyl butazone. In both models the mucous lesions are localized in the glandular section of the stomach. Female rats of the Wistar stock weighing 140-170 g are involved. 24 hours before the start of the test the rats are made to fast, while they are allowed water at will. Each test group consists of 12 animals. For the formation of the ulcer, 200 mg of phenylbutazone/kg in 2 ml of 0.5% gum arabic are administered to the animals orally. 10 minutes before administration of phenylbutazone, and 21/2 hours afterwards, substance in question is administered orally (in 0.5% gum arabic solution) or intravenously (in 0.9% sodium chloride solution) in variable doses (see table). The animals are killed 5 hours after administration of phenylbutazone, the stomachs are prepared and examined under a stereomicroscope, to evaluate the number and size of the lesions.

[4] = Deepness and rapidity test (untitled table 6); format: in vivo, Male Sprague-Dawley rats; settings: 200 mg/kg endoperitoneal; for Rapidity ± E.S.: controls 3.4 ± 0.3; for Deepness (mm ± E.S.): controls 74.9 ± 6.2
Procedure: | Treatment with the dose of 200 mg/kg endoperitoneal, one or two hours | before sacrifice. Male Sprague-Dawley rats with an average weight of 150 | gr.

[5] = LD50 by mouth in the mouse; format: in vivo; settings: in vivo, po
Procedure: a. LD50 by mouth in the mouse about 3000 mg/kg
25 gr of XVI are dissolved in 400 ml of water with NaOH 15% to pH 9, filtered and lyophilized : 24 gr of sodium salt of XVI as a white solid are obtained, humidity (K. Fisher) 2.08%, no U.V. absorption, equivalent weight found 301.7, I.R. bands at 3400, 1765, 1565, 1460, 1420, 1378 cm^-1.
After 20 hours at 20°, the solvent is evaporated in vacuo, the residue is dissolved in 1300 ml of water treated with 120 ml of acetic acid, extracted with chloroform. After solvent evaporation, 65.1 gr of the compound XVIII are obtained, as an oil, I.R. bands at 3420, 3100, 1710 cm^-1. 35 gr of the compound XVIII are dissolved in 600 ml of water with NaOH to pH 9. The solution is filtered and lyophilized: 35.5 gr of sodium salt of 9-hydroxy-19,20-bis-nor-prostanoic acid are obtained, as white solid, humidity (K.Fisher) 1.73%, no U.V. absorption, equivalent weight found 320, I.R. bands at 3400, 3300, 1565, 1460, 1390 cm^-1, LD50 by mouth in mice about 3000 mg/kg.

CCOC(=O)C(C)(C)Oc1ccc(Cl)cc1 [CPIB, clofibrate]
Cholesterolemia [1]: 59.7 ± 2.9 | Triglyceridemia [1]: 151.2 ± 10.4

CCCCCCC1=C(CCCCCCC(=O)O)C(=O)CC1 [9-keto-19,20-bis-nor-8(12)-prostenoic acid, sodium salt]
Ulcer scale (x ± Sx) ([2]; i.v., 1 × 50 mg/kg, p<0.01): 5.08 ± 2.38 | Ulcer scale (x ± Sx) ([2]; i.v., 2 × 5 mg/kg): 11.80 ± 5.1 | inhibition of ulcerating effect of aspirin (in words) ([2]; oral and intravenous): inhibits considerably the ulcerating effect of the aspirin in both oral doses, and in the higher doses in the case of intravenous application | Ulcer scale (x ± Sx) ([2]; p.o., 2 × 10 mg/kg, controls 17.95 ± 2.98, p<0.05): 9.25 ± 2.11 | Ulcer scale (x ± Sx) ([2]; p.o., 2 × 100 mg/kg, controls 17.95 ± 2.98, p<0.01): 5.83 ± 2.11 | inhibition at 50 mg/kg ([3]; Rattus norvegicus, iv, 1 × 50 mg/kg): 42.5% | inhibition at 5 mg/kg ([3]; Rattus norvegicus, iv, 2 × 5 mg/kg): 83.1% | inhibition at 10 mg/kg ([3]; Rattus norvegicus, po, 2 × 10 mg/kg): 54.9% | inhibition at 100 mg/kg ([3]; Rattus norvegicus, po, 2 × 100 mg/kg): 80.2% | Ulcer scale (x ± Sx) ([3]; i.v., 1 × 50 mg/kg, controls 11.17 ± 2.77): 6.42 ± 3.41 | Ulcer scale (x ± Sx) ([3]; i.v., 2 × 5 mg/kg, controls 11.17 ± 2.77, p<0.05): 3.00 ± 0.92 | inhibition of ulcerating effect of phenylbutazone (in words) ([3]; orally): can inhibit the ulcerating effect of phenylbutazone depending on the doses (orally) | Ulcer scale (x ± Sx) ([3]; p.o., 2 × 10 mg/kg, controls 9.25 ± 1.81, p<0.05): 4.17 ± 0.91 | Ulcer scale (x ± Sx) ([3]; p.o., 2 × 100 mg/kg, controls 9.25 ± 1.81, p<0.01): 1.83 ± 0.69

CC(=O)Oc1ccccc1C(=O)O [aspirin, reference compound]
Rapidity ± E.S. ([4]; 1 hour before sacrifice): 1.2 ± 0.1 | Deepness (mm ± E.S.) ([4]; 1 hour before sacrifice): 17.7 ± 2.4 mm | Rapidity ± E.S. ([4]; 2 hours before sacrifice): 2.5 ± 0.2 | Deepness (mm ± E.S.) ([4]; 2 hours before sacrifice): 48.4 ± 4.4 mm

CCCCCCC12CCC(O)C1(CCCCCCC(=O)O)O2 (centres unmarked) [sodium salt of XVI, 9-hydroxy-8(12)-epoxy-19,20-bis-nor prostanoic acid]
LD50 [5]: ~1500 mg/kg

CC(=Cc1ccccc1)CC(=O)O [BBA, β-benzalbutyric acid]
Cholesterolemia [1]: 66.5 ± 1.6 | Triglyceridemia [1]: 143.4 ± 17.8
